According to patent US11260049B2, “TRPV4 antagonists” (GlaxoSmithKline Intellectual Property (No. 2) Limited, priority 2016, dated 2022):

target: human TRPV4 (Homo sapiens (Human), UniProt Q9HBA0); experiment: FLIPR assay for hTRPV4 expressed in BHK cells; assay type: cell-based; conditions: at least one set of experimental runs; TRPV4 FLIPR assay; read-out: average IC50
Protocol: FLIPR Assay for hTRPV4 Expressed in BHK Cells:
TRPV4 channel activation results in an influx of divalent and monovalent cations including calcium. The resulting changes in intracellular calcium were monitored using a calcium specific fluorescent dye Fluo-4 (MDS Analytical Technologies). BHK/AC9 cells transduced with BacMam virus expressing the human TRPV4 gene at a MOI of 78 were plated in a 384 well poly-D lysine coated plate (15,000 cells/well in 50 μL culture medium containing DMEM/F12 with 15 mM HEPES, 10% FBS, 1% Penicillin-Streptomycin and 1% L-glutamine). Cells were incubated for 24 hours at 37° C. and 5% CO2. Culture medium was then aspirated using a Tecan plate-washer and replaced with 20 μL/well of dye loading buffer: HBSS, 500 μM Brilliant Black (MDS Analytical Technologies), and 2 μM Fluo-4 AM. Dye loaded plates were then incubated in the dark at room temperature for 1˜1.5 hours.

Sequence of human TRPV4 (Q9HBA0 whole entry): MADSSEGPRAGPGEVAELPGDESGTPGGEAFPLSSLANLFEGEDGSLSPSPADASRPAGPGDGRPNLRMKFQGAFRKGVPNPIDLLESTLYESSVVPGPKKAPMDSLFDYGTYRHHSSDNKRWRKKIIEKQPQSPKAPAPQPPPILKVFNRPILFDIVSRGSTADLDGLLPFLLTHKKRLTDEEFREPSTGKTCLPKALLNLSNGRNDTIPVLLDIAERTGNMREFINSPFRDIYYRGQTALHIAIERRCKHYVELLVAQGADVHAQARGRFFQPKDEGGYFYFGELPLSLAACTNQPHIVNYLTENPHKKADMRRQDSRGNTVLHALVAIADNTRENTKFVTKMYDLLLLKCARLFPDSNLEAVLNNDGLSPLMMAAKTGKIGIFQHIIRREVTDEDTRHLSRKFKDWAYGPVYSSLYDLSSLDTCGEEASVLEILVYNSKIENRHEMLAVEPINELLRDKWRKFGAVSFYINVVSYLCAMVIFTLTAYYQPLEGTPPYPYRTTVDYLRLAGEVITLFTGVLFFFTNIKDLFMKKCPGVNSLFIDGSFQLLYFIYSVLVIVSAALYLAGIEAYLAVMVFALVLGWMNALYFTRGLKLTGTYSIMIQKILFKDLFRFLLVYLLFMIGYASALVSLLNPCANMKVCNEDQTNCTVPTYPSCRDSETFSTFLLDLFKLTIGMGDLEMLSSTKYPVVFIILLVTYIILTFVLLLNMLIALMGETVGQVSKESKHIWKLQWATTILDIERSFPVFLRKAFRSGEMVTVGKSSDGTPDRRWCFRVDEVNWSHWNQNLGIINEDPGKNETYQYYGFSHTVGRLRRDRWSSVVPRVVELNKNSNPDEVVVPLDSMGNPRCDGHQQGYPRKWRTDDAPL

IC50 [nM] | Compound
13 | N#Cc1ccc(S(=O)(=O)[C@H]2CN(S(=O)(=O)c3ccc(F)cc3Br)C[C@@]2(O)CO)cc1 [Example 22, 4-(((3S,4R)-1-((2-bromo-4-fluorophenyl)sulfonyl)-4-hydroxy-4-(hydroxymethyl)pyrrolidin-3-yl)sulfonyl)benzonitrile]

same assay, conditions: inhibition of Agonist Compound (EC80)-induced calcium signal; BHK/AC9 cells expressing human TRPV4; read-out: IC50

Compound | IC50 [nM]
N#Cc1ccc(S(=O)(=O)[C@H]2CN(S(=O)(=O)c3ccc(Cl)cc3C(F)(F)F)C[C@@]2(O)CO)cc1 [Example 25, 4-(((3S,4R)-1-((4-chloro-2-(trifluoromethyl)phenyl)sulfonyl)-4-hydroxy-4-(hydroxymethyl)pyrrolidin-3-yl)sulfonyl)benzonitrile] | 0.1 to 10
N#Cc1ccc(S(=O)(=O)[C@H]2CN(S(=O)(=O)c3cc(F)c(Cl)cc3Cl)C[C@]2(O)CO)cc1F [Example 9, 4-(((3S,4S)-1-((2,4-dichloro-5-fluorophenyl)sulfonyl)-4-hydroxy-4-(hydroxymethyl)pyrrolidin-3-yl)sulfonyl)-2-fluorobenzonitrile] | 10 to 100
O=S(=O)(c1ccc(Cl)cc1)[C@H]1CN(S(=O)(=O)c2ccc(C(F)F)cc2Cl)C[C@@]1(O)CO [Example 37, (3R,4S)-1-((2-chloro-4-(difluoromethyl)phenyl)sulfonyl)-4-((4-chlorophenyl)sulfonyl)-3-(hydroxymethyl)pyrrolidin-3-ol] | 10 to 100
CC(C)c1ccc(S(=O)(=O)[C@H]2CN(S(=O)(=O)c3ccc(C#N)cc3Cl)C[C@@]2(O)CO)cc1 [Example 105, 3-chloro-4-(((3R,4S)-3-hydroxy-3-(hydroxymethyl)-4-((4-isopropylphenyl)sulfonyl)pyrrolidin-1-yl)sulfonyl)benzonitrile] | 10 to 100
O=S(=O)(c1ccc(C(F)(F)F)nc1)[C@H]1CN(S(=O)(=O)c2ccc(Cl)cc2Cl)C[C@@]1(O)CO [Example 118, (3R,4S)-1-((2,4-dichlorophenyl)sulfonyl)-3-(hydroxymethyl)-4-((6-(trifluoromethyl)pyridin-3-yl)sulfonyl)pyrrolidin-3-ol] | 10 to 100
Cc1ccc(S(=O)(=O)N2C[C@H](S(=O)(=O)c3ccc(C#N)c(F)c3)[C@@](O)(CO)C2)c(Cl)c1 [Example 6, 4-(((3S,4S)-1-((2-chloro-4-methylphenyl)sulfonyl)-4-hydroxy-4-(hydroxymethyl)pyrrolidin-3-yl)sulfonyl)-2-fluorobenzonitrile] | 10 to 100
N#Cc1ccc(S(=O)(=O)[C@H]2CN(S(=O)(=O)c3ccc(F)cc3Br)C[C@@]2(O)CO)cc1 [Example 22, 4-(((3S,4R)-1-((2-bromo-4-fluorophenyl)sulfonyl)-4-hydroxy-4-(hydroxymethyl)pyrrolidin-3-yl)sulfonyl)benzonitrile] | 10 to 100
O=S(=O)(c1ccc(Cl)c(Cl)c1)[C@H]1CN(S(=O)(=O)c2ccc(Cl)cc2Cl)C[C@@]1(O)CO [Example 114, (3R,4S)-1-((2,4-dichlorophenyl)sulfonyl)-4-((3,4-dichlorophenyl)sulfonyl)-3-(hydroxymethyl)pyrrolidin-3-ol] | 10 to 100
Cc1ccc(S(=O)(=O)N2C[C@H](S(=O)(=O)c3ccc(C#N)cc3)[C@](O)(CO)C2)c(Cl)c1 [Example 58, 4-(((3S,4R)-1-((2-chloro-4-methylphenyl)sulfonyl)-4-hydroxy-4-(hydroxymethyl)pyrrolidin-3-yl)sulfonyl)benzonitrile] | 10 to 100
N#Cc1ccccc1S(=O)(=O)N1C[C@H](S(=O)(=O)c2ccc(Cl)cc2)[C@](O)(CO)C1 [Example 47, 2-(((3R,4S)-4-((4-chlorophenyl)sulfonyl)-3-hydroxy-3-(hydroxymethyl)pyrrolidin-1-yl)sulfonyl)benzonitrile] | 10 to 100
N#Cc1ccc(S(=O)(=O)[C@H]2CN(S(=O)(=O)c3ccc(C(F)(F)F)cc3F)C[C@@]2(O)CO)cc1 [Example 36, 4-(((3S,4R)-1-((2-fluoro-4-(trifluoromethyl)phenyl)sulfonyl)-4-hydroxy-4-(hydroxymethyl)pyrrolidin-3-yl)sulfonyl)benzonitrile] | 10 to 100
COc1cc(C#N)ccc1S(=O)(=O)N1C[C@H](S(=O)(=O)c2ccc(C(F)(F)F)cc2)[C@](O)(CO)C1 [Example 56, 4-(((3R,4S)-3-hydroxy-3-(hydroxymethyl)-4-((4-(trifluoromethyl)phenyl)sulfonyl)pyrrolidin-1-yl)sulfonyl)-3-methoxybenzonitrile] | 10 to 100
CCOc1cc(C#N)ccc1S(=O)(=O)N1C[C@H](S(=O)(=O)c2ccc(Cl)cc2)[C@](O)(CO)C1 [Example 49, 4-(((3R,4S)-4-((4-chlorophenyl)sulfonyl)-3-hydroxy-3-(hydroxymethyl)pyrrolidin-1-yl)sulfonyl)-3-ethoxybenzonitrile] | 10 to 100
N#Cc1ccc(S(=O)(=O)N2C[C@H](S(=O)(=O)c3ccc(C(F)(F)F)cn3)[C@](O)(CO)C2)c(Cl)c1 [Example 110, 3-chloro-4-(((3R,4S)-3-hydroxy-3-(hydroxymethyl)-4-((5-(trifluoromethyl)pyridin-2-yl)sulfonyl)pyrrolidin-1-yl)sulfonyl)benzonitrile] | 10 to 100
N#Cc1ccc(S(=O)(=O)[C@H]2CN(S(=O)(=O)c3ccc(OC(F)(F)F)cc3Cl)C[C@]2(O)CO)cc1F [Example 8, 4-(((3S,4S)-1-((2-chloro-4-(trifluoromethoxy)phenyl)sulfonyl)-4-hydroxy-4-(hydroxymethyl)pyrrolidin-3-yl)sulfonyl)-2-fluorobenzonitrile] | 10 to 100
Cc1cc(C#N)ccc1S(=O)(=O)N1C[C@H](S(=O)(=O)c2ccc(C#N)c(F)c2)[C@](O)(CO)C1 [Example 70, 4-(((3S,4R)-1-((4-cyano-2-methylphenyl)sulfonyl)-4-hydroxy-4-(hydroxymethyl)pyrrolidin-3-yl)sulfonyl)-2-fluorobenzonitrile] | 0.1 to 10
N#Cc1ccc(S(=O)(=O)[C@H]2CN(S(=O)(=O)c3cc(F)c(Cl)cc3Cl)C[C@@]2(O)CO)cc1F [Example 16, 4-(((3S,4R)-1-((2,4-dichloro-5-fluorophenyl)sulfonyl)-4-hydroxy-4-(hydroxymethyl)pyrrolidin-3-yl)sulfonyl)-2-fluorobenzonitrile] | 0.1 to 10
N#Cc1ccc(S(=O)(=O)N2C[C@H](S(=O)(=O)c3ccc(Cl)cc3)[C@](O)(CO)C2)c(C(F)(F)F)c1 [Example 19, 4-(((3R,4S)-4-((4-chlorophenyl)sulfonyl)-3-hydroxy-3-(hydroxymethyl)pyrrolidin-1-yl)sulfonyl)-3-(trifluoromethyl)benzonitrile] | 0.1 to 10
N#Cc1ccc(S(=O)(=O)N2C[C@H](S(=O)(=O)c3ccc(Cl)cc3)[C@](O)(CN)C2)cc1 [Example 126, 4-(((3S,4S)-3-(aminomethyl)-4-((4-chlorophenyl)sulfonyl)-3-hydroxypyrrolidin-1-yl)sulfonyl)benzonitrile] | 10 to 100
N#Cc1ccc(S(=O)(=O)N2C[C@H](S(=O)(=O)c3ccc(C(F)(F)F)nc3)[C@](O)(CO)C2)c(Cl)c1 [Example 26, 3-chloro-4-(((3R,4S)-3-hydroxy-3-(hydroxymethyl)-4-((6-(trifluoromethyl)pyridin-3-yl)sulfonyl)pyrrolidin-1-yl)sulfonyl)benzonitrile] | 10 to 100
N#Cc1cc(S(=O)(=O)[C@H]2CN(S(=O)(=O)c3ccc(Cl)cc3Cl)C[C@@]2(O)CO)ccc1Cl [Example 103, 2-chloro-5-(((3S,4R)-1-((2,4-dichlorophenyl)sulfonyl)-4-hydroxy-4-(hydroxymethyl)pyrrolidin-3-yl)sulfonyl)benzonitrile] | 10 to 100
N#Cc1ccccc1S(=O)(=O)N1C[C@H](S(=O)(=O)c2ccc(C(F)(F)F)cc2)[C@](O)(CO)C1 [Example 53, 2-(((3R,4S)-3-hydroxy-3-(hydroxymethyl)-4-((4-(trifluoromethyl)phenyl)sulfonyl)pyrrolidin-1-yl)sulfonyl)benzonitrile] | 10 to 100
